Measurements as given in patent US9540392B2, “Thienopyrimidines” (BAYER PHARMA AKTIENGESELLSCHAFT, priority 2012, dated 2017).

Experiments:
human full-length MKNK1 = target: T1, human full-length MKNK1 (Homo sapiens, UniProt Q9BUB5, T385D); experiment: MKNK1 kinase high ATP assay (TR-FRET); format: biochemical; conditions: 2 mM ATP, after preincubation with MKNK1; read-out: MKNK1 IC50 (MKNK1 high ATP)
T1 construct: GST (N); purchased Carna Biosciences 02-145; host or cells: insect cells (baculovirus expression system)
T1 sequence (Q9BUB5 1-424 isoform Q9BUB5-2 T344D): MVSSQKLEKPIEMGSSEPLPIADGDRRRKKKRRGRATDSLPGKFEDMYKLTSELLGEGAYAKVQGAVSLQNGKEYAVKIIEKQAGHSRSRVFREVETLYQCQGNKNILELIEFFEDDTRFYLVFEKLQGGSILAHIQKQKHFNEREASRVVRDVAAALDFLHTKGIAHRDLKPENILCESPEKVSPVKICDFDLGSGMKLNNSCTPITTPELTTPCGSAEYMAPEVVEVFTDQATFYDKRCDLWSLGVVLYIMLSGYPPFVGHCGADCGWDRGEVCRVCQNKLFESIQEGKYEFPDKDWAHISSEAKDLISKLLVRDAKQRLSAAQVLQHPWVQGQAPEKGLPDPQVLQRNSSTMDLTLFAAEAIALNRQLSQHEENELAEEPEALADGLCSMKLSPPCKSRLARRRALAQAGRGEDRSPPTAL
Outline: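 Compound was preincubated 15 min at 22° C. with MKNK1 in 50 mM HEPES pH 7.5, 5 mM MgCl2, 1.0 mM DTT, then the reaction ran 30 min at 22° C. with 2 mM ATP and 0.06 μM biotinylated peptide (final).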

[1] = test system: eIF4E Ser209 phosphorylation in A549 cells; experiment: AlphaScreen SureFire eIF4E Ser209 phosphorylation assay in A549 cells with 20% FCS stimulation; format: cell-based; conditions: Homo sapiens, read-out: pEIF4e (IC50 of the EIF4e phosphorylation)
From the text: The AlphaScreen SureFire eIF4E Ser209 phoshorylation assay is used to measure the phosphorylation of endogenous eIF4E in cellular lysates. The AlphaScreen SureFire technology allows the detection of phosphorylated proteins in cellular lysates. In this assay, sandwich antibody complexes, which are only formed in the presence of the analyte (p-eIF4E Ser209), are captured by AlphaScreen donor and acceptor beads, bringing them into close proximity. The excitation of the donor bead provokes the release of singlet oxygen molecules that triggers a cascade of energy transfer in the Acceptor beads, resulting in the emission of light at 520-620 nm.
Surefire EIF4e Alphascreen in A549 cells with 20% FCS stimulation
For the assay the AlphaScreen SureFire p-eIF4E Ser209 10K Assay Kit and the AlphaScreen ProteinA Kit (for 10K assay points) both from Perkin Elmer were used. On day one 50.000 A549 cells were plated in a 96-well plate in 100 μL per well in growth medium (DMEM/Hams' F12 with stable Glutamin, 10% FCS) and incubated at 37° C. After attachment of the cells, medium was changed to starving medium (DMEM, 0.1% FCS, without Glucose, with Glutamin, supplemented with 5 g/L Maltose). On day two, test compounds were serially diluted in 50 μL starving medium with a final DMSO concentration of 1% and were added to A549 cells in test plates at a final concentration range from as high 10 μM to as low 10 nM depending on the activities of the tested compounds. Treated cells were incubated at 37° C. for 2 h. 37 ul FCS was added to the wells (=final FCS concentration 20%) for 20 min. Then medium was removed and cells were lysed by adding 50 μL lysis buffer. Plates were then agitated on a plate shaker for 10 min. After 10 min lysis time, 4 μL of the lysate is transferred to a 384 well plate (Proxiplate from Perkin Elmer) and 5 μL Reaction Buffer plus Activation Buffer mix containing AlphaScreen Acceptor beads was added. Plates were sealed with TopSeal-A adhesive film, gently agitated on a plate shaker for 2 hours at room temperature. Afterwards 2 μL Dilution buffer with AlphaScreen Donor beads were added under subdued light and plates were sealed again with TopSeal-A adhesive film and covered with foil. Incubation takes place for further 2 h gently agitation at room temperature. Plates were then measured in an EnVision reader (Perkin Elmer) with the AlphaScreen program. Each data point (compound dilution) was measured as triplicate.
The IC50 values were determined by means of a 4-parameter fit using the company's own software.

Row | SMILES | IC50 (human full-length MKNK1) [nM] | IC50 [1] [nM]
1 | Cc1cccc(NC(=O)C2CCc3c(sc4ncnc(Nc5ccc6[nH]ncc6c5)c34)C2)c1 (stereo not shown) [Example 16, 4-(1H-indazol-5-ylamino)-N-(3-methylphenyl)-5,6,7,8-tetrahydro[1]benzothieno[2,3-d]pyrimidine-7-carboxamide] | 5 | 373
2 | COc1cc2[nH]ncc2cc1Nc1ncnc2sc3c(c12)CCC(C(=O)NC(C)C)C3 (racemic) [Example 66, (RS)-4-[(6-Methoxy-1H-indazol-5-yl)amino]-N-(propan-2-yl)-5,6,7,8-tetrahydro[1]benzothieno[2,3-d]pyrimidine-7-carboxamide] | 1.6 | 61
3 | CCNC(=O)C1CCc2c(sc3ncnc(Nc4cc5cn[nH]c5cc4OC)c23)C1 (stereo not shown) [Example 58, N-Ethyl-4-[(6-methoxy-1H-indazol-5-yl)amino]-5,6,7,8-tetrahydro[1]benzothieno[2,3-d]pyrimidine-7-carboxamide] | 0.7 | 203
4 | CC(C)Oc1cc2[nH]ncc2cc1Nc1ncnc2sc3c(c12)CCC(C(=O)N1CCN(C)CC1)C3 (racemic) [Example 71, (RS)-(4-Methylpiperazin-1-yl)(4-{[6-(propan-2-yloxy)-1H-indazol-5-yl]amino}-5,6,7,8-tetrahydro[1]benzothieno[2,3-d]pyrimidin-7-yl)methanone] | 0.5 | 32
5 | O=C(NCc1ccccc1)C1CCc2c(sc3ncnc(Nc4ccc5[nH]ncc5c4)c23)C1 (stereo not shown) [Example 21, N-Benzyl-4-(1H-indazol-5-ylamino)-5,6,7,8-tetrahydro[1] benzothieno [2,3-d]pyrimidine-7-carboxamide] | 3 | 381
6 | COc1cc2[nH]ncc2cc1Nc1ncnc2sc3c(c12)CCC(C(=O)N1CCN(C)CC1)C3 (racemic) [Example 65, (RS)-{4-[(6-Methoxy-1H-indazol-5-yl)amino]-5,6,7,8-tetrahydro[1]benzothieno[2,3-d]pyrimidin-7-yl}(4-methylpiperazin-1-yl)methanone] | 0.5 | 343
7 | CC(C)NC(=O)C1CCc2c(sc3ncnc(Nc4cc5cn[nH]c5cc4OC(C)C)c23)C1 (racemic) [Example 72, (RS)—N-(Propan-2-yl)-4-{[6-(propan-2-yloxy)-1H-indazol-5-yl]amino}-5,6,7,8-tetrahydro[1]benzothieno[2,3-d]pyrimidine-7-carboxamide] | 0.6 | 75
8 | Cc1cccc(CNC(=O)C2CCc3c(sc4ncnc(Nc5ccc6[nH]ncc6c5)c34)C2)c1 (stereo not shown) [Example 20, 4-(1H-indazol-5-ylamino)-N-(3-methylbenzyl)-5,6,7,8-tetrahydro[1] benzothieno [2,3-d]pyrimidine-7-carboxamide] | 2 | 344
9 | CC(C)Oc1cc2[nH]ncc2cc1Nc1ncnc2sc3c(c12)CCC(C(=O)N(C)C)C3 (racemic) [Example 70, (RS)—N,N-Dimethyl-4-{[6-(propan-2-yloxy)-1H-indazol-5-yl]amino}-5,6,7,8-tetrahydro[1]benzothieno[2,3-d]pyrimidine-7-carboxamide] | 0.4 | 90
10 | O=C(NCc1cccc(C(F)(F)F)c1)C1CCc2c(sc3ncnc(Nc4ccc5[nH]ncc5c4)c23)C1 (stereo not shown) [Example 9, 4-(1H-indazol-5-ylamino)-N-[3-(trifluoromethyl)benzyl]-5,6,7,8-tetrahydro[1]benzothieno[2,3-d]pyrimidine-7-carboxamide] | 3 | 171
11 | CCOc1cc2[nH]ncc2cc1Nc1ncnc2sc3c(c12)CCC(C(=O)N(CC)CCOC)C3 (racemic) [Example 273, (RS)-4-[(6-Ethoxy-1H-indazol-5-yl)amino]-N-ethyl-N-(2-methoxyethyl)-5,6,7,8-tetrahydro[1]benzothieno[2,3-d]pyrimidine-7-carboxamide] | 0.2 | 
12 | CN(C)c1ccc(CNC(=O)C2CCc3c(sc4ncnc(Nc5ccc6[nH]ncc6c5)c34)C2)cc1 (stereo not shown) [Example 34, N-[4-(Dimethylamino)benzyl]-4-(1H-indazol-5-ylamino)-5,6,7,8-tetrahydro[1] benzothieno [2,3-d]pyrimidine-7-carboxamide] | 5 | 
13 | COc1cc2[nH]ncc2cc1Nc1ncnc2sc3c(c12)CCC(C(=O)N(CCO)CCO)C3 (racemic) [Example 234, (RS)—N, N-Bis(2-hydroxyethyl)-4-[(6-methoxy-1H-indazol-5-yl)amino]-5,6,7,8-tetrahydro[1]benzothieno[2,3-d]pyrimidine-7-carboxamide] | 0.4 | 
14 | O=C(C1CCc2c(sc3ncnc(Nc4ccc5[nH]ncc5c4)c23)C1)N1CCN(Cc2cccnc2)CC1 (racemic) [Example 155, (RS)-[4-(1H-indazol-5-ylamino)-5,6,7,8-tetrahydro[1]benzothieno[2,3-d]pyrimidin-7-yl][4-(pyridin-3-ylmethyl)piperazin-1-yl]methanone] | 18.3 | 
15 | CC(C)NC(=O)C1CCc2c(sc3ncnc(Nc4cc5cn[nH]c5cc4F)c23)C1 (racemic) [Example 63, (RS)-4-[(6-Fluoro-1H-indazol-5-yl)amino]-N-(propan-2-yl)-5,6,7,8-tetrahydro[1]benzothieno[2,3-d]pyrimidine-7-carboxamide] | 10.2 | 
16 | CN(C)C(=O)C1CCc2c(sc3ncnc(Nc4cc5cn[nH]c5cc4OCCCl)c23)C1 (racemic) [Example 266, (RS)-4-{[6-(2-Chloroethoxy)-1H-indazol-5-yl]amino}-N,N-dimethyl-5,6,7,8-tetrahydro[1]benzothieno[2,3-d]pyrimidine-7-carboxamide] | 1.2 | 
17 | CCOc1cc2[nH]ncc2cc1Nc1ncnc2sc3c(c12)CCC(C(=O)N1CCCC1)C3 (racemic) [Example 228, (RS)-{4-[(6-Ethoxy-1H-indazol-5-yl)amino]-5,6,7,8-tetrahydro[1]benzothieno[2,3-d]pyrimidin-7-yl}(pyrrolidin-1-yl)methanone] | 0.2 | 
18 | O=C(NCCCn1ccnc1)C1CCc2c(sc3ncnc(Nc4ccc5[nH]ncc5c4)c23)C1 (racemic) [Example 93, (RS)-N-[3-(1H-imidazol-1-yl)propyl]-4-(1H-indazol-5-ylamino)-5,6,7,8-tetrahydro[1]benzothieno[2,3-d]pyrimidine-7-carboxamide] | 9.9 | 
19 | CCOc1cc2[nH]ncc2cc1Nc1ncnc2sc3c(c12)CCC(C(=O)N1CC[C@H](O)C1)C3 (mixture of isomers) [Example 246, {(7RS)-4-[(6-Ethoxy-1H-indazol-5-yl)amino]-5,6,7,8-tetrahydro[1]benzothieno[2,3-d]pyrimidin-7-yl}[(3S)-3-hydroxypyrrolidin-1-yl]methanone] | 0.9 | 
20 | CN(C)C(=O)CN1CCN(C(=O)C2CCc3c(sc4ncnc(Nc5ccc6[nH]ncc6c5)c34)C2)CC1 (racemic) [Example 143, (RS)-2-(4-{[4-(1H-indazol-5-ylamino)-5,6,7,8-tetrahydro[1]benzothieno[2,3-d]pyrimidin-7-yl]carbonyl}piperazin-1-yl)-N,N-dimethylacetamide] | 19.5 | 
21 | O=C(C1CCc2c(sc3ncnc(Nc4ccc5[nH]ncc5c4)c23)C1)N1CCN(C(=O)N2CCCC2)CC1 (stereo not shown) [Example 52, [4-(1H-Indazol-5-ylamino)-5,6,7,8-tetrahydro[1]benzothieno [2,3-d]pyrimidin-7-yl][4-(pyrrolidin-1-ylcarbonyl)piperazin-1-yl]methanone] | 20 | 
22 | COc1cccc(CNC(=O)C2CCc3c(sc4ncnc(Nc5ccc6[nH]ncc6c5)c34)C2)c1 (stereo not shown) [Example 19, 4-(1H-indazol-5-ylamino)-N-(3-methoxybenzyl)-5,6,7,8-tetrahydro[1] benzothieno [2,3-d]pyrimidine-7-carboxamide] | 2 | 
23 | O=C(NCCc1ccccc1)C1CCc2c(sc3ncnc(Nc4ccc5[nH]ncc5c4)c23)C1 (stereo not shown) [Example 37, 4-(1H-Indazol-5-ylamino)-N-(2-phenylethyl)-5,6,7,8-tetrahydro[1] benzothieno [2,3-d]pyrimidine-7-carboxamide] | 6 | 
24 | CC(C)(C)NC(=O)C1CCc2c(sc3ncnc(Nc4ccc5[nH]ncc5c4)c23)C1 (racemic) [Example 102, (RS)-N-tert-butyl-4-(1H-indazol-5-ylamino)-5,6,7,8-tetrahydro[1]benzothieno[2,3-d]pyrimidine-7-carboxamide] | 14.9 | 
